Assay results reported in a melting point compilation (Tetko et al.; mined from patent text by program, amines drawn as free bases though some values may be those of a salt).

Structure (SMILES)	melting point [°C]
O=C(CCCC12CCC(=O)N1C(=O)CC2)OCc1ccccc1	102 to 105
Cc1nc(CCO)c2c(n1)N(N)C(=O)C(C)(C)O2	168 to 170
CN(C(=O)OC(C)(C)C)[C@H]1CCN(C(=O)c2ccc(-c3[nH]nc4c3C(=O)c3c(NC(=O)NN5CCOCC5)cccc3-4)s2)C1	> 300
CN(C(=O)Nc1ccccc1)c1ccc(Cl)cc1C(=O)c1ccccc1	158 to 160
COC(=O)c1cccc(-n2cccc2)n1	61
CC(=O)NC(C)c1cc(S(N)(=O)=O)sc1S(C)(=O)=O (stereo not given)	114 to 117
Cc1cccc(-n2c(=O)[nH]c3ccc(F)cc3c2=O)c1	278 to 279
COc1ccc(CC2Cc3cc(C)cnc3C(O)C2)cc1 (single isomer, unassigned; (+))	132 to 134
CCCCCCCCCCCCCCCCCCOC(=O)c1ccc(Cn2c(=S)sc3ccccc32)cc1	105 to 107
NC(=O)c1csc(-c2cc3c(Oc4ccc(Cl)cc4)cncc3s2)n1	215 to 218
COc1cc(COc2nn(-c3ccccc3)cc2C=O)ccc1OCc1nc(-c2cccc(O)c2)oc1C	193 to 194
CS(=O)(=O)N(Cc1ccccc1)c1ccc(C2CO2)cc1 (stereo not given)	89 to 92
Oc1ccc2c(c1)CCc1c-2cc2ccc(O)cc2c1C1CCCC1	233 to 235
CCOC(=O)C(CC)c1ccc(N2Cc3ccccc3C2=N)cc1 (stereo not given)	157 to 159
CCCCc1ncc(CNC(C)(Cc2cccs2)C(=O)O)n1Cc1ccccc1Cl (stereo not given)	109 to 112
CN(C)C(=O)c1cnn2ccccc12	86 to 87
CCOC(=O)CC(=O)c1cc(F)c(S(=O)c2ccccc2)nc1Nc1ccc(F)cc1F (stereo not given)	105 to 106
S=c1c2c(c3cccnc3n1-c1ccccc1)OCC2	242 to 244
c1ccc(COc2ccc(Nc3ccccn3)cc2)cc1	110 to 112
CCOC(=O)NC(=S)NCC(C)C	50 to 52

Structure (SMILES)	melting point [°C]
Cn1cc(-c2nsc(Cl)n2)c2ccccc21	93 to 94
O=C(NC1(CO)NCC(O)C(O)C1O)c1ccccc1 (stereo not given)	154 to 156
Cc1ccc(-c2ccc(C=Cc3ccc(Cl)cc3)s2)s1	157 to 162
Cc1ccccc1OS(=O)(=O)c1ccc(N2CCCNC2=O)cc1	161 to 163
CCN1C(=O)C2=C(c3cccc(Cl)c3)N(CC)C(=O)C2=C1c1cccc(Cl)c1	203 to 205
COc1ccc(C#N)c2c1OC1(COCC1OC)C2 (stereo not given)	151 to 156
CCN(CC)Cc1c(Cl)ccc2cc(Cl)cnc12	54
O=CC1CC(n2ccc(=O)[nH]c2=O)OC1COC(c1ccccc1)(c1ccccc1)c1ccccc1 (stereo not given)	100
O=C(O)COc1c(-c2cccc(Cl)c2)cc(C(=O)NCCCC2CCCC2)cc1-c1cccc(C(F)(F)F)c1	173 to 175
Oc1ccc2c(c1)COc1c-2cc2ccc(O)cc2c1-c1cccc(C(F)(F)F)c1	228 to 231
O=C(c1cccnc1)N1CCC=N1	81 to 82
Cc1ccc2c(c1)C(N(CCCCC(=O)O)S(C)(=O)=O)CC(C)(C)O2 (stereo not given)	190 to 195
COc1ccc2c(c1)N(CC1CN3CCC1CC3)c1ccccc1S2 (stereo not given)	135 to 136
CCCC[C@H](NC(=O)OC(C)(C)C)C(=O)CSCc1ccsc1	43 to 45
CSc1nccc(Oc2ccc(NC(=O)c3cc(F)cc(N4CCCCC4)c3)c3ccccc23)n1	130 to 132
O=C(c1cccc(-c2ccccc2)c1C(=O)C(Cl)(Cl)Cl)C(Cl)(Cl)Cl	137 to 152
CC=CCn1c(C)c(C)c2cnnc(OCc3cc(F)cc(F)c3)c21	78 to 84
Cc1[nH]c2ccc(Cl)cc2c1C(C(=O)C1(Cl)C=CC=CC1)c1cc(=O)n(C2CCCCC2)[nH]1 (stereo not given)	121
Nc1cc(S(=O)(=O)c2ccccc2)c([N+](=O)[O-])c2cccnc12	211 to 213
CC(C)(N)CSCCO	49 to 51
